Assay results from patent US20110053897A1 (IRM LLC, priority 2009, published 2011).
pIC50: −log10 of the molar value. Like-named read-outs stand apart in the source and are kept apart here.

Biological target: T1, Syk kinase (Homo sapiens, UniProt P43405)
T1 construct: purchased
Assay: Syk kinase inhibition, Caliper LabChip off-chip mobility-shift kinase assay
Format: biochemical
Settings: read-out: Syk Enzyme IC50
Procedure, shortened: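 Purified Syk pre-incubated 15 min with compound in 100 mM HEPES pH 7.5, 1 mM DTT, 10 mM MgCl2 or MnCl2, 0.002% Brij-35, then 1.5 μM fluorescein peptide and ATP at apparent KM added; 1–1.5 h at room temperature, 4% DMSO, EDTA stop. Microfluidic mobility-shift product/substrate conversion gave % inhibition; IC50 from 12-point series (10–0.00003 μM) by 4-parameter fit.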

| pIC50 (Caliper LabChip assay) | pIC50 | Structure (SMILES) |
| --- | --- | --- |
| 8.22 | – | CN1CCC(Oc2cc(Nc3cc4ccn(C[C@H](O)CO)c(=O)c4c(NC(C)(C)C)n3)ncn2)CC1 [compound 649] |
| 7.25 | – | CC(C)(O)COc1cc(Nc2cc3ccn(CCO)c(=O)c3c(NC(C)(C)C)n2)ncn1 [compound 641] |
| 6.77 | – | CC(C)(C)Nc1nc(Nc2cc(C3(C(N)=O)CC3)ccn2)cc2ccn(CCO)c(=O)c12 [compound 859] |
| 8.05 | – | CC(C)(C)Nc1nc(Nc2cnccn2)cc2ccn(CCS(C)(=O)=O)c(=O)c12 [compound 738, 8-(tert-butylamino)-2-(2-(methylsulfonyl)ethyl)-6-(pyrazin-2-ylamino)-2,7-naphthyridin-1(2H)-one] |
| 7.38 | – | CC(C)(C)Nc1nc(Nc2cc(CO)ccn2)cc2ccn(CCO)c(=O)c12 [compound 693] |
| 8.22 | – | CC(C)(C)Nc1nc(Nc2cc(CO)ccn2)cc2ccn(CC(=O)O)c(=O)c12 [compound 875] |
| 7.52 | – | COCCn1ccc2cc(-c3cnc(N)nc3)nc(NC(C)(C)C)c2c1=O [compound 910] |
| 6.63 | – | COCCNCc1ccnc(Nc2cc3ccn(CCO)c(=O)c3c(NC(C)(C)C)n2)c1 [compound 694] |
| 7.82 | – | CCn1ccc2cc(Nc3nccc(O)n3)nc(N[C@H]3CCC[C@H]3O)c2c1=O [compound 957] |
| 7.21 | – | Cc1ccnc(Nc2cc3ccn(C(C)C)c(=O)c3c(NC(C)(C)CO)n2)c1 [compound 819] |
| 7.23 | – | CC(C)(C)Nc1nc(Nc2cc(CN)ccn2)cc2ccn(CCO)c(=O)c12 [compound 707] |
| 7.68 | – | [2H]C([2H])([2H])n1ccc2cc(-c3cnc(N)nc3)nc(N[C@H]3CC[C@@H](O)CC3)c2c1=O [compound 1026] |
| 7.66 | – | CC1(Cn2ccc3cc(Nc4cnccn4)nc(NC4CCCC4)c3c2=O)COC1 [compound 762] |
| 7.82 | – | O=c1[nH]ccc2cc(Nc3cnccn3)nc(N[C@H]3CC[C@@H](O)CC3)c12 [compound 981] |
| 7.23 | – | NC(=O)Cn1ccc2cc(-c3cnc(N)nc3)nc(NC3CCCC3)c2c1=O [compound 757] |
| 7.00 | – | CC(C)(C)Nc1nc(Nc2cc(S(C)(=O)=O)ccn2)cc2ccn(CCO)c(=O)c12 [compound 699] |
| 7.77 | – | CCn1ccc2cc(Nc3cnccn3)nc(N[C@H]3CC[C@H](O)C3)c2c1=O [compound 946] |
| 7.46 | – | CC1(Nc2nc(Nc3cc(C(C)(C)O)ncn3)cc3ccn(CC(O)CO)c(=O)c23)CCC1 (stereo not shown) [compound 732] |
| 7.70 | – | CC1(Nc2nc(-c3cnc(N)nc3)cc3ccn(CCO)c(=O)c23)CC1 [compound 1036] |
| 7.48 | – | CCn1ccc2cc(Nc3cc(C)ccn3)nc(N[C@H]3CC[C@@H](CO)C3)c2c1=O [compound 792] |
| 7.09 | – | CC(C)(C)Nc1nc(Nc2cc(C(N)=O)ccn2)cc2ccn(CCO)c(=O)c12 [compound 681] |
| 7.49 | – | CC(C)n1ccc2cc(Nc3cnccn3)nc(N[C@H]3CC[C@@H](O)CC3)c2c1=O [compound 944] |

More lines, now with the values behind:

| Structure (SMILES) | pIC50 (Caliper LabChip assay) | pIC50 |
| --- | --- | --- |
| COc1cncc(-c2cc3cc[nH]c(=O)c3c(Nc3ccc(CCN4CCC(F)(F)CC4)cc3)n2)n1 [compound 44] | – | 6.20 |
| O=c1[nH]ccc2cc(Nc3cc(C(F)(F)F)ccn3)nc(NC3CC3)c12 [compound 517] | – | 6.41 |
| COCCCNc1nc(Nc2cc(C)ccn2)cc2cc[nH]c(=O)c12 [compound 281] | – | 7.06 |
| C/C=C/c1cc2cc[nH]c(=O)c2c(Nc2ccc(C3CCN(C4CC4)CC3)c(C)c2)n1 [compound 228] | – | 5.78 |
| CC(C)(C)Nc1nc(Nc2cc(C(F)F)ccn2)cc2ccn(CCO)c(=O)c12 [compound 615] | 8.05 | – |
| CCCNC(=O)c1ccc(Nc2nc(Nc3cnccn3)cc3ccn(C)c(=O)c23)cc1 [compound 366] | – | 6.49 |
| CC(C)Nc1nc(Nc2cc(C(=O)O)ccn2)cc2cc[nH]c(=O)c12 [compound 587] | – | 6.65 |
| CC(C)(C)Nc1nc(Nc2cc(-c3cn[nH]c3)ncn2)cc2ccn(CCO)c(=O)c12 [compound 639] | 6.55 | – |
| CC(C)(C)Nc1nc(Nc2cc(C(O)C(F)(F)F)ccn2)cc2ccn(CCO)c(=O)c12 (stereo not shown) [Compound No. 602, 8-(tert-butylamino)-2-(2-hydroxyethyl)-6-(4-(2,2,2-trifluoro-1-hydroxyethyl)pyridin-2-ylamino)-2,7-naphthyridin-1(2H)-one] | 7.19 | – |
| O=c1[nH]ccc2cc(Nc3ccc(CCN4CCOCC4)cn3)nc(Nc3ccc(N4CCOCC4)cc3)c12 [compound 568] | – | 6.26 |
| Cc1ccnc(Nc2cc3ccn(C)c(=O)c3c(NCCCO)n2)c1 [compound 503] | – | 7.08 |
| Cc1ccnc(Nc2cc3cc[nH]c(=O)c3c(NCCCO)n2)c1 [compound 504] | – | 7.32 |
| [2H]C([2H])([2H])n1ccc2cc(Nc3cc(Cl)ccn3)nc(N[C@@H](C)CO)c2c1=O [compound 403] | – | 7.22 |
| COc1cncc(-c2cc3cc[nH]c(=O)c3c(Nc3ccc(C4CCN(C(C)C)CC4)c(C)c3)n2)n1 [compound 165] | – | 8.52 |
| Cc1ncc(-c2cc3cc[nH]c(=O)c3c(Nc3ccc(C4CCN(CCC#N)CC4)c(C)c3)n2)cn1 [compound 73] | – | 7.09 |
| Cc1nc(-c2cc3cc[nH]c(=O)c3c(Nc3ccc([C@H]4CC[C@H](N5CCOCC5)CC4)cc3)n2)cnc1N [compound 102] | – | 6.65 |
| CC(C)(C)Nc1nc(Nc2cc(CNCCO)ccn2)cc2ccn(CCO)c(=O)c12 [compound 608] | > 8.25 | – |

| Structure (SMILES) | pIC50 (Caliper LabChip assay) | pIC50 |
| --- | --- | --- |
| O=c1[nH]ccc2cc(Nc3ccccn3)nc(N3CCCC3)c12 [compound 279] | – | 5.85 |
| Cc1ccnc(Nc2cc3cc[nH]c(=O)c3c(NC[C@@H](C)O)n2)c1 [compound 513] | – | 7.15 |
| O=c1[nH]ccc2cc(C3CCSCC3)nc(Nc3ccc(N4CCOCC4)cc3)c12 [compound 15] | – | 6.15 |
| Cc1ccc(-c2cc3cc[nH]c(=O)c3c(Nc3ccc(CCN4CCNC(=O)C4)cc3)n2)cn1 [compound 152] | – | 6.93 |
| CCOC(=O)/C=C/c1cc2cc[nH]c(=O)c2c(Nc2ccc(N3CCOCC3)cc2)n1 [compound 242] | – | 6.48 |
| CNC(=O)C(C)(C)c1ccc(Nc2nc(-c3cnc4nccn4c3)cc3cc[nH]c(=O)c23)cc1 [compound 29] | – | 7.52 |
| Cc1cc(-c2cc3cc[nH]c(=O)c3c(Nc3ccc(C4CCN(C5CC5)CC4)c(C)c3)n2)ccn1 [compound 212] | – | 6.41 |
| Cc1ccc(Nc2cc3cc[nH]c(=O)c3c(Nc3ccc(C4CCN(CC(N)=O)CC4)c(C)c3)n2)nc1 [compound 558] | – | 6.31 |
| CC(C)Nc1nc(Nc2cnccn2)cc2ccn(CCN3CCOCC3)c(=O)c12 [compound 320] | – | 6.70 |
| Cn1cc(-c2cc3cc[nH]c(=O)c3c(Nc3ccc([C@H]4CC[C@H](N5CCOCC5)CC4)cc3)n2)cn1 [compound 99] | – | 6.77 |
| Cc1cc(Nc2nc(Nc3cc(Cl)ccn3)cc3cc[nH]c(=O)c23)ccc1C1CCN(C2CC2)CC1 [compound 257] | – | 6.77 |
| COc1cncc(-c2cc3cc[nH]c(=O)c3c(Nc3ccc(CCN4CC5CNCC5C4)cc3)n2)n1 (stereo not shown) [compound 433] | – | 7.29 |
| COCC(C)Nc1nc(-c2cnc(N)nc2)cc2cc[nH]c(=O)c12 (stereo not shown) [compound 180] | – | 6.94 |
| CC(C)Nc1nc(Nc2cnccn2)cc2ccn(C)c(=O)c12 [compound 347] | – | 7.24 |
| COCCCN1CCC(c2ccc(Nc3nc(-c4cncnc4)cc4cc[nH]c(=O)c34)cc2F)CC1 [compound 197] | – | 7.46 |
| COc1ccnc(Nc2cc3cc[nH]c(=O)c3c(Nc3ccc(C4CCN(C5CC5)CC4)c(C)c3)n2)c1 [compound 259] | – | 6.59 |
